Measurements: US20090215791A1, “NEW THERAPEUTIC USE OF 4-(2-FLUOROPHENYL)-6-METHYL-2-(1-PIPERAZINYL)THIENO[2,3-D]PYRIMIDINE” (Dynogen Pharmaceuticals, Inc., priority 2001, published 2009)

Key:
[1] = tested on: inflammatory pain (inflamed paw); test: Inflammatory pain, modified Randall Selitto method, paw pressure analgesiometer (Study 1); type: in vivo, rats; settings: for Group mean (±sd) pain threshold (g) of inflamed paw at 1 hour pre-dose / Group mean (±sd) pain threshold (g) of inflamed paw at 2 hour pre-dose: baseline before dosing, 13 per group, groups later given MCI-225 30 mg/kg or indomethacin 1 mg/kg
Method: Three groups of rats received vehicle, indomethacin or MCI-225. There were 13 rats in each group. Inflammatory pain was induced following a modified Randall Selitto method and the pain threshold of the inflamed paw was measured using a paw pressure analgesiometer. The threshold for paw withdrawal was measured in grams at 1 and 3 hours post dose.

[2] = tested on: reflex depressor response to colorectal distension; test: Reflex depressor response to colorectal distension in anesthetised rats (Study 2); type: in vivo, male Sprague-Dawley rats; settings: for Fall in arterial blood pressure (mean absolute decrease in mean arterial pressure, SEM in brackets) evoked by balloon distension: after MCI-225 3 mg/kg i.v.
Method: In Study 2, using intact animals, the ability of a drug to inhibit the reflex depressor response to colorectal distension can be assessed. In this model, an inhibition of the reflex indicates modulation of visceral nociceptive neurotransmission and, therefore, the use of the drug in functional bowel disease (e.g IBS); see Kozlowski et al, 2000, Gut 46, 474-480. Allodynia and visceral pain are important components of functional bowel disease.
Experiments were performed on male Sprague-Dawley rats (250-300 g). Anesthesia was induced with isoflurane (2.5% in oxygen) and maintained with alpha chlorolose (80 mg/kg i.v.). The left carotid artery was cannulated for the measurement of blood pressure and heart rate and the left jugular vein cannulated for drug administration. A tracheal cannula was implanted for artificial respiration if required. A 10 mm long latex balloon was inserted intrarectally so that the tip of the balloon was 20 mm from the anal verge (Kozlowski et al, supra). The balloon was connected via a double lumen cannula to a pressure transducer and also to a saline-filled syringe for inflation/deflation of the balloon. Throughout the experiment, body temperature was kept constant at 36-38 C using a homeothermic blanket.
Once stable baseline parameters were obtained (approximately after 20 minutes), the balloon was rapidly inflated with increasing volumes of saline (0.5-2.5 ml) for 30 seconds at 5 minute intervals, and the resultant change in blood pressure recorded. Three distinct response curves were constructed, with a 10 minute stabilisation period between each curve. In one group of animals, 10 minutes prior to the commencement of the final distension response curve, a single bolus of MCI-225 (3 mg/kg) was administered intravenously; in a second group of animals, a single bolus dose of vehicle was administered. The effect of MCI-225 and vehicle was determined by analysing the changes in colorectal distension that evoked depressor response.

Row | SMILES | Group mean (±sd) pain threshold (g) of inflamed paw at 1 hour pre-dose ([1]; rats) | Group mean (±sd) pain threshold (g) of inflamed paw at 2 hour pre-dose ([1]; rats) | Group mean changes (±sd) in pain threshold (g) from pre-dose reading at 1 hour post-dose ([1]; 1 hour post-dose, MCI-225 30 mg/kg (oral), indomethacin 1 mg/kg, rats, * p<0.05, ** p<0.01 vs vehicle, monohydrate hydrochloride) | Group mean changes (±sd) in pain threshold (g) from pre-dose reading at 3 hour post-dose ([1]; 3 hour post-dose, MCI-225 30 mg/kg (oral), indomethacin 1 mg/kg, rats, * p<0.05, ** p<0.01 vs vehicle, monohydrate hydrochloride) | Analgesic activity in in vivo model of inflammatory pain (in words) ([1]; MCI-225 oral dose of 30 mg/kg versus indomethacin 1 mg/kg) | Fall in arterial blood pressure (mean absolute decrease in mean arterial pressure, SEM in brackets) evoked by balloon distension ([2]; 0.5 ml balloon volume, n=6, before drug 2.7 (1.9)) | Fall in arterial blood pressure (mean absolute decrease in mean arterial pressure, SEM in brackets) evoked by balloon distension ([2]; 1.0 ml balloon volume, n=6, before drug 12.4 (5.9)) | Fall in arterial blood pressure (mean absolute decrease in mean arterial pressure, SEM in brackets) evoked by balloon distension ([2]; 1.5 ml balloon volume, n=6, before drug 24.0 (8.9)) | Fall in arterial blood pressure (mean absolute decrease in mean arterial pressure, SEM in brackets) evoked by balloon distension ([2]; 2.0 ml balloon volume, n=6, before drug 36.3 (4.8), p<0.01 paired t test) | Fall in arterial blood pressure (mean absolute decrease in mean arterial pressure, SEM in brackets) evoked by balloon distension ([2]; 2.5 ml balloon volume, n=5, before drug 43.4 (6.0), p<0.05 paired t test) | Effect on distension-induced falls in blood pressure (in words) ([2]; MCI-225 3 mg/kg i.v., significant at 2.0 and 2.5 ml balloon volumes)
1 | COc1ccc2c(c1)c(CC(=O)O)c(C)n2C(=O)c1ccc(Cl)cc1 [Indomethacin, indomethacin, reference compound] | 166.2 ± 68.32 g | 144.2 ± 41.32 g | – | – | – | – | – | – | – | – | –
2 | Cc1cc2c(-c3ccccc3F)nc(N3CCNCC3)nc2s1.Cl.O [MCI-225, 4-(2-Fluorophenyl)-6-methyl-2-(1-piperazinyl)thieno[2,3-D]pyrimidine monohydrate hydrochloride] | 147.7 ± 65.91 g | 138.5 ± 34.72 g | 32.3 g | 66.9 g | comparable to that of indomethacin | 2.2 (1.65) mmHg | 6.3 (2.6) mmHg | 10.6 (3.9) mmHg | 15.3 (5.4) mmHg | 24.6 (7.3) mmHg | inhibited the distension-induced falls in blood pressure
